Measured values from PubChem BioAssay AID2060889 (Molecular Pharmacology Branch, DTP, NCI, 2025).
Each block holds one compound with its values, some of them ahead of it.

System: LG0567-F671-PDC complex spheroids viability
Experiment: Anticancer human tumor LG0567-F671-PDC patient-derived lung adenocarcinoma cell line growth inhibition [RAS]
Details: for viability, T/C: stronger effect = lower value
Outline: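 Multi-cell-type spheroids: tumor cells plus HUVEC endothelial cells and mesenchymal stem cells. RAS-pathway inhibitors were combined with targeted agents, each dosed in half-log steps down from clinical Cmax, or from 10 microM when Cmax was unknown.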

[1] = curve of first compound, second compound 0.000949 µM
[2] = curve of first compound, second compound 0.003 µM
[3] = curve of first compound, second compound 0.00949 µM
[4] = curve of first compound, second compound 0.03 µM
[5] = curve of first compound, second compound 0.0949 µM
[6] = curve of first compound, second compound 0.3 µM
[7] = second compound 0.000949 µM, first compound 0.0316 µM
[8] = second compound 0.000949 µM, first compound 0.1 µM
[9] = second compound 0.000949 µM, first compound 0.316 µM
[10] = second compound 0.000949 µM, first compound 1 µM
[11] = second compound 0.003 µM, first compound 0.0316 µM
[12] = second compound 0.003 µM, first compound 0.1 µM
[13] = second compound 0.003 µM, first compound 0.316 µM
[14] = second compound 0.003 µM, first compound 1 µM
[15] = second compound 0.00949 µM, first compound 0.0316 µM
[16] = second compound 0.00949 µM, first compound 0.1 µM
[17] = second compound 0.00949 µM, first compound 0.316 µM
[18] = second compound 0.00949 µM, first compound 1 µM
[19] = second compound 0.03 µM, first compound 0.0316 µM
[20] = second compound 0.03 µM, first compound 0.1 µM
[21] = second compound 0.03 µM, first compound 0.316 µM
[22] = second compound 0.03 µM, first compound 1 µM
[23] = second compound 0.0949 µM, first compound 0.0316 µM
[24] = second compound 0.0949 µM, first compound 0.1 µM
[25] = second compound 0.0949 µM, first compound 0.316 µM
[26] = second compound 0.0949 µM, first compound 1 µM
[27] = second compound 0.3 µM, first compound 0.0316 µM
[28] = second compound 0.3 µM, first compound 0.1 µM
[29] = second compound 0.3 µM, first compound 0.316 µM
[30] = second compound 0.3 µM, first compound 1 µM
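Further: spheroids exposed to compound for seven days before readout.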
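Wherever IC50 is given: luminescence signal used as a proxy for viable cells.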

IC50 [1]: < 31.6 nM
IC50 [2]: < 31.6 nM
IC50 [3]: < 31.6 nM
IC50 [4]: < 31.6 nM
IC50 [5]: < 31.6 nM
IC50 [6]: < 31.6 nM
Structure (SMILES): CC(C)NCC(C(=O)N1CCN(c2ncnc3c2C(C)CC3O)CC1)c1ccc(Cl)cc1 (stereo not drawn) + CCn1c(-c2cc(N3CCN(C)CC3)cnc2C(C)OC)c2c3cc(ccc31)-c1csc(n1)CC(NC(=O)C1CC1C)C(=O)N1CCCC(N1)C(=O)OCC(C)(C)C2
viability, T/C [7]: 25.2%
viability, T/C [8]: 23.8%
viability, T/C [9]: 19.2%
viability, T/C [10]: 14.8%
viability, T/C (second compound 0.000949 µM, first compound 3.16 µM): 12.1%
viability, T/C (second compound 0.000949 µM, first compound 10 µM): 15.1%
viability, T/C [11]: 12.2%
viability, T/C [12]: 10.1%
viability, T/C [13]: 9.03%
viability, T/C [14]: 7.01%
viability, T/C (second compound 0.003 µM, first compound 3.16 µM): 6.61%
viability, T/C (second compound 0.003 µM, first compound 10 µM): 6.58%
viability, T/C [15]: 6.47%
viability, T/C [16]: 6.39%
viability, T/C [17]: 5.04%
viability, T/C [18]: 4.97%
viability, T/C (second compound 0.00949 µM, first compound 3.16 µM): 3.86%
viability, T/C (second compound 0.00949 µM, first compound 10 µM): 3.52%
viability, T/C [19]: 4.03%
viability, T/C [20]: 3.99%
viability, T/C [21]: 3.4%
viability, T/C [22]: 2.83%
viability, T/C (second compound 0.03 µM, first compound 3.16 µM): 2.4%
viability, T/C (second compound 0.03 µM, first compound 10 µM): 2.51%
viability, T/C [23]: 3.05%
viability, T/C [24]: 2.86%
viability, T/C [25]: 2.34%
viability, T/C [26]: 1.84%
viability, T/C (second compound 0.0949 µM, first compound 3.16 µM): 1.68%
viability, T/C (second compound 0.0949 µM, first compound 10 µM): 1.73%
viability, T/C [27]: 2.97%
viability, T/C [28]: 2.51%
viability, T/C [29]: 2.28%
viability, T/C [30]: 1.91%
viability, T/C (second compound 0.3 µM, first compound 3.16 µM): 1.51%
viability, T/C (second compound 0.3 µM, first compound 10 µM): 1.41%

IC50 [1]: < 3.16 nM
IC50 [2]: < 3.16 nM
IC50 [3]: < 3.16 nM
IC50 [4]: < 3.16 nM
IC50 [5]: < 3.16 nM
IC50 [6]: < 3.16 nM
Structure (SMILES): C=CC(=O)N1CCN(c2nc(OCC3CCCN3C)nc3c(F)c(-c4nc(N)cc(C)c4C(F)(F)F)c(Cl)cc23)C(C)C1 (stereo not drawn) + CCn1c(-c2cc(N3CCN(C)CC3)cnc2C(C)OC)c2c3cc(ccc31)-c1csc(n1)CC(NC(=O)C1CC1C)C(=O)N1CCCC(N1)C(=O)OCC(C)(C)C2
viability, T/C (second compound 0.000949 µM, first compound 0.00316 µM): 9.35%
viability, T/C (second compound 0.000949 µM, first compound 0.01 µM): 9.1%
viability, T/C [7]: 8%
viability, T/C [8]: 8.66%
viability, T/C [9]: 7.95%
viability, T/C [10]: 7.17%
viability, T/C (second compound 0.003 µM, first compound 0.00316 µM): 5.52%
viability, T/C (second compound 0.003 µM, first compound 0.01 µM): 6.02%
viability, T/C [11]: 5.86%
viability, T/C [12]: 7.54%
viability, T/C [13]: 7.84%
viability, T/C [14]: 6.72%
viability, T/C (second compound 0.00949 µM, first compound 0.00316 µM): 5.09%
viability, T/C (second compound 0.00949 µM, first compound 0.01 µM): 4.57%
viability, T/C [15]: 5.64%
viability, T/C [16]: 4.78%
viability, T/C [17]: 5.6%
viability, T/C [18]: 4.86%
viability, T/C (second compound 0.03 µM, first compound 0.00316 µM): 3.64%
viability, T/C (second compound 0.03 µM, first compound 0.01 µM): 3.58%
viability, T/C [19]: 3.59%
viability, T/C [20]: 3.48%
viability, T/C [21]: 4.15%
viability, T/C [22]: 3.55%
viability, T/C (second compound 0.0949 µM, first compound 0.00316 µM): 3.37%
viability, T/C (second compound 0.0949 µM, first compound 0.01 µM): 3.02%
viability, T/C [23]: 2.73%
viability, T/C [24]: 2.71%
viability, T/C [25]: 2.59%
viability, T/C [26]: 3.04%
viability, T/C (second compound 0.3 µM, first compound 0.00316 µM): 2.73%
viability, T/C (second compound 0.3 µM, first compound 0.01 µM): 2.79%
viability, T/C [27]: 2.44%
viability, T/C [28]: 2.81%
viability, T/C [29]: 2.66%
viability, T/C [30]: 2.96%

IC50 (curve of compound): < 31.6 nM
Structure (SMILES): NC1c2ccccc2OC12CCN(c1cnc3c(N4CCCc5ncccc54)n[nH]c3n1)CC2 (stereo not drawn)
viability, T/C (compound 0.0316 µM): 37.3% [middle of 4 runs]
viability, T/C (compound 0.1 µM): 26.9% [middle of 4 runs]
viability, T/C (compound 0.316 µM): 23.4% [middle of 4 runs]
viability, T/C (compound 1 µM): 23% [middle of 4 runs]
viability, T/C (compound 3.16 µM): 21.2% [middle of 4 runs]
viability, T/C (compound 10 µM): 20.4% [middle of 4 runs]

IC50 (curve of first compound, second compound 0.0316 µM): 65.8 nM
IC50 (curve of first compound, second compound 0.1 µM): < 31.6 nM
IC50 (curve of first compound, second compound 0.316 µM): < 31.6 nM
IC50 (curve of first compound, second compound 1 µM): < 31.6 nM
IC50 (curve of first compound, second compound 3.16 µM): < 31.6 nM
IC50 (curve of first compound, second compound 10 µM): < 31.6 nM
Structure (SMILES): Cc1nc(N2CCC3(CC2)COC(C)C3N)c(CO)nc1Sc1ccnc(N)c1Cl (stereo not drawn) + C#Cc1c(F)ccc2cc(O)cc(-c3ncc4c(N5CC6CCC(C5)N6)nc(OCC56CCCN5CC(F)C6)nc4c3F)c12
viability, T/C (second compound 0.0316 µM, first compound 0.0316 µM): 63.3%
viability, T/C (second compound 0.0316 µM, first compound 0.1 µM): 43.5%
viability, T/C (second compound 0.0316 µM, first compound 0.316 µM): 26.2%
viability, T/C (second compound 0.0316 µM, first compound 1 µM): 19.9%
viability, T/C (second compound 0.0316 µM, first compound 3.16 µM): 15.2%
viability, T/C (second compound 0.0316 µM, first compound 10 µM): 13.1%
viability, T/C (second compound 0.1 µM, first compound 0.0316 µM): 46.1%
viability, T/C (second compound 0.1 µM, first compound 0.1 µM): 31.3%
viability, T/C (second compound 0.1 µM, first compound 0.316 µM): 21.6%
viability, T/C (second compound 0.1 µM, first compound 1 µM): 15.5%
viability, T/C (second compound 0.1 µM, first compound 3.16 µM): 12.7%
viability, T/C (second compound 0.1 µM, first compound 10 µM): 9.84%
viability, T/C (second compound 0.316 µM, first compound 0.0316 µM): 35.3%
viability, T/C (second compound 0.316 µM, first compound 0.1 µM): 20.9%
viability, T/C (second compound 0.316 µM, first compound 0.316 µM): 18.1%
viability, T/C (second compound 0.316 µM, first compound 1 µM): 10.4%
viability, T/C (second compound 0.316 µM, first compound 3.16 µM): 8.05%
viability, T/C (second compound 0.316 µM, first compound 10 µM): 7.7%
viability, T/C (second compound 1 µM, first compound 0.0316 µM): 21%
viability, T/C (second compound 1 µM, first compound 0.1 µM): 16.2%
viability, T/C (second compound 1 µM, first compound 0.316 µM): 10.6%
viability, T/C (second compound 1 µM, first compound 1 µM): 10.3%
viability, T/C (second compound 1 µM, first compound 3.16 µM): 4.69%
viability, T/C (second compound 1 µM, first compound 10 µM): 3.85%
viability, T/C (second compound 3.16 µM, first compound 0.0316 µM): 12.1%
viability, T/C (second compound 3.16 µM, first compound 0.1 µM): 8.68%
viability, T/C (second compound 3.16 µM, first compound 0.316 µM): 5.69%
viability, T/C (second compound 3.16 µM, first compound 1 µM): 4.95%
viability, T/C (second compound 3.16 µM, first compound 3.16 µM): 3.57%
viability, T/C (second compound 3.16 µM, first compound 10 µM): 2.94%
viability, T/C (second compound 10 µM, first compound 0.0316 µM): 7.2%
viability, T/C (second compound 10 µM, first compound 0.1 µM): 6.13%
viability, T/C (second compound 10 µM, first compound 0.316 µM): 3.88%
viability, T/C (second compound 10 µM, first compound 1 µM): 2.23%
viability, T/C (second compound 10 µM, first compound 3.16 µM): 2.98%
viability, T/C (second compound 10 µM, first compound 10 µM): 1.91%
